From publication PMC9715595, “Optimization of the precursor supply for an enhanced FK506 production in Streptomyces tsukubaensis” (Frontiers in Bioengineering and Biotechnology, 2022)

Legend:
[1] = molecular target: T1, PipAf (Pip; LCD from A. friuliensis) (Actinoplanes friuliensis, UniProt U5VYY1); assay: X-ray crystal structure ([…] Å); format: binding; details: crystallised with 1 mM NAD+; cofactor modelled as NADH; one NADH per monomer
T1 construct: gene AFR_18570; full length, N-terminal His-tag (pET30 Ek/LIC), E. coli; monomer 339 residues, ~36 kDa, homodimer
T1 sequence (U5VYY1 1-339): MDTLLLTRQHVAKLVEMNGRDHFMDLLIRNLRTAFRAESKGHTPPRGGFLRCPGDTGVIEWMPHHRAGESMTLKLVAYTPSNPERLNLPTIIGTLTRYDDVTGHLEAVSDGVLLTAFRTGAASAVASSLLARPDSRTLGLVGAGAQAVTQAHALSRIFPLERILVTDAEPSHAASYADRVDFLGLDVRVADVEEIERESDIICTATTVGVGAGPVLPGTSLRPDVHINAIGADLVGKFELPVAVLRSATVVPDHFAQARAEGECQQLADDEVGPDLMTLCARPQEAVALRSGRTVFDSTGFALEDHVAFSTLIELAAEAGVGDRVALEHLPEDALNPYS

[2] = molecular target: T1, PipAf (Pip; LCD from A. friuliensis); assay: X-ray crystal structure ([…] Å); format: binding; details: co-crystallised with 140 mM lysine and 1 mM NAD+; NADH bound; pH 8.5; active site
[3] = molecular target: lysine cyclodeaminase PipAf from Actinoplanes friuliensis (Actinoplanes friuliensis); assay: SEC; gel filtration on Superdex 200, 150 mM NaCl, 25 mM HEPES pH 7.4; main peak corresponds to a dimer

NC(=O)C1=CN([C@@H]2O[C@H](COP(=O)(O)OP(=O)(O)OC[C@H]3O[C@@H](n4cnc5c(N)ncnc54)[C@H](O)[C@@H]3O)[C@@H](O)[C@H]2O)C=CC1 [NADH]
X-ray crystal structure (1.3 Å) [1]: One molecule NADH binds per monomer via a canonical Rossman fold

NCCCC[C@H](N)C(=O)O [lysine]
X-ray crystal structure (1.4 Å) [2]: Lysine binds in the active site running parallel to the nicotinamide ring

lysine cyclodeaminase PipAf from Actinoplanes friuliensis (enzyme)
stoichiometry N [3]: 2
